From DBAASP
Values after ≈ are worked out from the molar mass of the structure shown. Values joined by “and” are separate entries in the source; they are usually repeats but may differ in a detail not shown here. Identical values can stand only once. Each block holds one molecule with its values, some of them ahead of it.

Key:
Assay in all cases: ≥ marks a high value that may be exact or a test limit, other limits are often not marked, values filed in µg/mL are converted to µM
[1] = tested on: Pseudomonas aeruginosa ATCC BAA-427
[2] = tested on: Klebsiella pneumoniae ATCC 27736
[3] = tested on: Bacillus subtilis ATCC 6633
Bacillus subtilis 168 = tested on: Bacillus subtilis 168
[4] = tested on: Candida albicans F7-39/IDE99
Pseudomonas aeruginosa = tested on: Pseudomonas aeruginosa
Staphylococcus aureus = tested on: Staphylococcus aureus
[5] = tested on: Micrococcus luteus CCM 144
Escherichia coli B = tested on: Escherichia coli B
Escherichia coli K-12 = tested on: Escherichia coli K-12
Streptococcus mutans = tested on: Streptococcus mutans
Acinetobacter baumannii = tested on: Acinetobacter baumannii
Enterococcus faecalis = tested on: Enterococcus faecalis
[6] = tested on: Pseudomonas aeruginosa ATCC 27853
[7] = tested on: Staphylococcus epidermidis
Escherichia coli MG1655 = tested on: Escherichia coli MG1655
Escherichia coli BL21 = tested on: Escherichia coli BL21
Enterococcus faecium = tested on: Enterococcus faecium

MIC (Bacillus subtilis 168): 2.5 µM (≈ 4.79 µg/mL)
MIC [4]: 25 µM (≈ 47.9 µg/mL)
MIC (Pseudomonas aeruginosa): 31.7 µM (≈ 60.8 µg/mL)
MIC (Staphylococcus aureus): 3.7 µM (≈ 7.09 µg/mL)
MIC [5]: 1.7 µM (≈ 3.26 µg/mL)
MIC (Escherichia coli B): 3.7 µM (≈ 7.09 µg/mL)
SMILES: CC[C@H](C)[C@H](NC(=O)[C@H](CC(C)C)NC(=O)[C@H](CCCCN)NC(=O)[C@@H](NC(=O)[C@@H](NC(=O)[C@H](Cc1cnc[nH]1)NC(=O)[C@@H]1CCCN1C(=O)[C@H](CC(C)C)NC(=O)[C@@H](NC(=O)[C@H](CCCCN)NC(=O)[C@H](C)NC(=O)[C@H](CC(C)C)NC(=O)[C@H](CC(C)C)NC(=O)[C@H](CO)NC(=O)[C@H](C)NC(=O)[C@H](CCSC)NC(=O)CN)C(C)C)C(C)C)C(C)C)C(=O)N[C@@H](CCCCN)C(N)=O [GMASLLAKVLPHVVKLIK]

MIC (Bacillus subtilis 168): ≥ 120 µM
MIC (Escherichia coli K-12): ≥ 120 µM
SMILES: CC[C@H](C)[C@H](N)C(=O)NCC(=O)N[C@@H](CC(C)C)C(=O)N[C@@H](CCCN=C(N)N)C(=O)NCC(=O)N[C@@H](CC(C)C)C(=O)NCC(=O)N[C@@H](CCCN=C(N)N)C(=O)N[C@@H](CCCCN)C(=O)N[C@H](C(=O)N[C@@H](C)C(=O)N[C@@H](CC(C)C)C(=O)N[C@H](C(=O)N[C@@H](Cc1cnc[nH]1)C(=O)N[C@@H](CCCCN)C(=O)N[C@@H](CCCCN)C(=O)N[C@@H](Cc1ccc(O)cc1)C(=O)NCC(=O)O)[C@@H](C)CC)[C@@H](C)CC [IGLRGLGRKIALIHKKYG]

MIC (Bacillus subtilis 168): 5.8 µM (≈ 8.57 µg/mL)
MIC [4]: 7.7 µM (≈ 11.4 µg/mL)
MIC (Pseudomonas aeruginosa): 31.7 µM (≈ 46.8 µg/mL)
MIC (Staphylococcus aureus): 76.7 µM (≈ 113 µg/mL)
MIC [5]: 4.5 µM (≈ 6.65 µg/mL)
MIC (Escherichia coli B): 11.3 µM (≈ 16.7 µg/mL)
SMILES: CC[C@H](C)[C@H](NC(=O)[C@H](CCCCN)NC(=O)CNC(=O)[C@H](Cc1c[nH]c2ccccc12)NC(=O)[C@H](CC(N)=O)NC(=O)[C@@H](N)CCCCN)C(=O)N[C@@H](CC(C)C)C(=O)N[C@@H](CCCCN)C(=O)N[C@@H](Cc1cnc[nH]1)C(=O)N[C@H](C(=O)N[C@H](C(=O)N[C@@H](CCCCN)C(N)=O)[C@@H](C)CC)[C@@H](C)CC [KNWGKILKHIIK]

MIC (Bacillus subtilis 168): 1.5 µM (≈ 4.17 µg/mL)
MIC [4]: 18.7 µM (≈ 52 µg/mL)
MIC (Pseudomonas aeruginosa): > 100 µM
MIC (Staphylococcus aureus): > 100 µM
MIC [5]: 0.8 µM (≈ 2.22 µg/mL)
MIC (Escherichia coli B): ≥ 32.5 µM
SMILES: CC[C@H](C)[C@@H]1NC(=O)[C@H](CCCCN)NC(=O)[C@H](CCCCN)NC(=O)[C@@H]2CSSC[C@H](NC(=O)[C@H](C)NC(=O)[C@H](C(C)C)NC(=O)[C@@H](NC(=O)[C@@H](NC(=O)[C@@H](NC(=O)[C@H](CCCCN)NC(=O)[C@H](CCCCN)NC(=O)[C@@H](NC(=O)[C@H](CC(=O)O)NC(=O)[C@@H](N)CC(C)C)C(C)C)[C@@H](C)CC)[C@@H](C)CC)CSSC[C@@H](C(=O)N3CCC[C@H]3C(=O)N[C@@H](CCCCN)C(=O)O)NC1=O)C(=O)N[C@@H](CCCCN)C(=O)N[C@@H]([C@@H](C)CC)C(=O)N[C@@H](CCCN=C(N)N)C(=O)N1CCC[C@H]1C(=O)N[C@@H](CC(N)=O)C(=O)N1CCC[C@H]1C(=O)N[C@@H](C)C(=O)N2 [LDVKKIICVACKIRPNPACKKICPK]

MIC (Acinetobacter baumannii): 5.06 µM (≈ 8 µg/mL)
MIC (Pseudomonas aeruginosa): 10.1 µM (≈ 16 µg/mL)
MIC (Staphylococcus aureus): 15.2 µM (≈ 24 µg/mL)
MIC (Enterococcus faecalis): 7.59 µM (≈ 12 µg/mL)
MIC [6]: 40.5 µM and > 20.2 µM
SMILES: CC[C@H](C)[C@H](NC(=O)[C@H](C)NC(=O)[C@H](CCCCN)NC(=O)[C@H](CC(C)C)NC(=O)[C@H](CCCCN)NC(=O)[C@@H](N)CC(C)C)C(=O)N[C@@H](C)C(=O)N[C@@H](C)C(=O)N[C@@H](CC(C)C)C(=O)N[C@@H](C)C(=O)N[C@@H](CCCCN)C(=O)N[C@@H](CCCCN)C(=O)N[C@@H](CCCCN)C(=O)N[C@@H](Cc1c[nH]c2ccccc12)C(N)=O [LKLKAIAALAKKKW]

MIC (Streptococcus mutans): 31.8 µM (≈ 44.7 µg/mL)
SMILES: CC[C@H](C)[C@H](NC(=O)[C@H](CCCCN)NC(=O)[C@H](CC(C)C)NC(=O)[C@H](CC(C)C)NC(=O)[C@H](CCC(N)=O)NC(=O)[C@H](CCCCN)NC(=O)[C@@H](N)C(C)C)C(=O)N[C@@H](Cc1ccccc1)C(=O)N[C@@H](CC(N)=O)C(=O)N[C@@H](CCCN=C(N)N)C(=O)N[C@@H](Cc1ccccc1)C(N)=O [VKQLLKIFNRF]

Further lines, the molecule ahead of its results:

SMILES: CC[C@H](C)[C@H](NC(=O)CNC(=O)[C@H](CCCN=C(N)N)NC(=O)[C@H](Cc1ccccc1)NC(=O)[C@@H](NC(=O)[C@H](Cc1cnc[nH]1)NC(=O)[C@H](Cc1cnc[nH]1)NC(=O)[C@H](Cc1ccccc1)NC(=O)[C@@H](N)Cc1ccccc1)[C@@H](C)CC)C(=O)N[C@H](C(=O)N[C@@H](Cc1cnc[nH]1)C(=O)N[C@H](C(=O)NCC(=O)N[C@@H](CCCCN)C(=O)N[C@H](C(=O)N[C@H](C(=O)N[C@@H](Cc1cnc[nH]1)C(=O)N[C@@H](CCCN=C(N)N)C(=O)N[C@@H](CC(C)C)C(=O)N[C@H](C(=O)N[C@H](C(=O)NCC(N)=O)[C@@H](C)O)C(C)C)[C@@H](C)CC)[C@@H](C)O)[C@@H](C)CC)C(C)C [FFHHIFRGIVHIGKTIHRLVTG]
MIC [1]: 4 µM (≈ 10.3 µg/mL)
MIC [2]: 3 µM (≈ 7.76 µg/mL)
MIC [3]: 6 µM (≈ 15.5 µg/mL)

SMILES: CC[C@H](C)[C@H](NC(=O)CNC(=O)[C@H](CCCN=C(N)N)NC(=O)[C@H](Cc1ccccc1)NC(=O)[C@@H](NC(=O)[C@H](Cc1cnc[nH]1)NC(=O)[C@H](Cc1cnc[nH]1)NC(=O)[C@H](Cc1ccccc1)NC(=O)[C@@H](N)Cc1ccccc1)C(C)C)C(=O)N[C@H](C(=O)N[C@@H](Cc1cnc[nH]1)C(=O)N[C@H](C(=O)NCC(=O)N[C@@H](CCCCN)C(=O)N[C@H](C(=O)N[C@H](C(=O)N[C@@H](Cc1cnc[nH]1)C(=O)N[C@@H](CCCN=C(N)N)C(=O)N[C@@H](CC(C)C)C(=O)N[C@H](C(=O)N[C@H](C(=O)NCC(N)=O)[C@@H](C)O)C(C)C)[C@@H](C)CC)[C@@H](C)O)C(C)C)C(C)C [FFHHVFRGIVHVGKTIHRLVTG]
MIC [1]: 12 µM (≈ 30.7 µg/mL)
MIC [2]: 6 µM (≈ 15.3 µg/mL)
MIC [3]: 8 µM (≈ 20.5 µg/mL)

SMILES: CC(C)C[C@H](NC(=O)[C@H](CC(C)C)NC(=O)[C@H](CCCCN)NC(=O)[C@H](CCCCN)NC(=O)[C@H](CC(C)C)NC(=O)[C@@H](N)CCCCN)C(=O)N[C@@H](CCCCN)C(=O)N[C@@H](CCCN=C(N)N)C(=O)N[C@@H](Cc1c[nH]c2ccccc12)C(=O)N[C@@H](CCCN=C(N)N)C(=O)N[C@@H](CCCN=C(N)N)C(=O)N[C@@H](Cc1c[nH]c2ccccc12)C(=O)N[C@@H](Cc1c[nH]c2ccccc12)C(=O)N[C@@H](CCCN=C(N)N)C(=O)O [KLKKLLKRWRRWWR]
MIC (Streptococcus mutans): 3.9 µM (≈ 8 µg/mL)

SMILES: CC[C@H](C)[C@H](NC(=O)[C@H](CCCCN)NC(=O)[C@H](CCCN=C(N)N)NC(=O)[C@H](CCCCN)NC(=O)[C@H](CCCCN)NC(=O)[C@H](CCCCN)NC(=O)[C@H](Cc1c[nH]c2ccccc12)NC(=O)[C@H](CCCCN)NC(=O)[C@H](CC(C)C)NC(=O)[C@H](Cc1c[nH]c2ccccc12)NC(=O)[C@H](CCCN=C(N)N)NC(=O)[C@H](CC(=O)O)NC(=O)[C@H](CCSC)NC(C)=O)C(=O)N[C@@H](CCCN=C(N)N)C(=O)N[C@@H](CCCN=C(N)N)C(=O)N[C@@H](CCCN=C(N)N)C(=O)N[C@@H](CCCN=C(N)N)C(=O)N[C@@H](CCCN=C(N)N)C(=O)N[C@@H](CCCN=C(N)N)C(=O)N[C@@H](CCCN=C(N)N)C(=O)N[C@@H](CCCN=C(N)N)C(=O)N[C@@H](CCCN=C(N)N)C(=O)N[C@@H](CCCN=C(N)N)C(=O)N[C@@H](CCCN=C(N)N)C(N)=O [MDRWLKWKKKRKIRRRRRRRRRRR]
MIC [7]: 4 µM (≈ 14.3 µg/mL)
MIC (Escherichia coli MG1655): 12 µM (≈ 42.9 µg/mL)
MIC (Escherichia coli BL21): 6 µM (≈ 21.5 µg/mL)

SMILES: C[C@H](NC(=O)[C@H](CO)NC(=O)[C@H](C)NC(=O)[C@H](Cc1ccccc1)NC(=O)[C@H](Cc1c[nH]c2ccccc12)NC(=O)[C@H](Cc1c[nH]c2ccccc12)NC(=O)[C@H](Cc1c[nH]c2ccccc12)NC(=O)[C@H](CCCN=C(N)N)NC(=O)[C@H](CCCN=C(N)N)NC(=O)[C@@H](N)CCCN=C(N)N)C(=O)N[C@@H](CO)C(=O)N[C@@H](C)C(=O)N[C@@H](CCCN=C(N)N)C(=O)N[C@@H](CCCN=C(N)N)C(=O)N[C@@H](CCCN=C(N)N)C(=O)N[C@@H](Cc1c[nH]c2ccccc12)C(=O)N[C@@H](Cc1c[nH]c2ccccc12)C(=O)N[C@@H](Cc1c[nH]c2ccccc12)C(=O)N[C@@H](Cc1ccccc1)C(N)=O [RRRWWWFASASARRRWWWF]
MIC (Streptococcus mutans): 11.6 µM (≈ 32 µg/mL)

SMILES: CC(C)C[C@H](NC(=O)[C@H](CC(C)C)NC(=O)[C@H](CC(C)C)NC(=O)[C@H](CC(C)C)NC(=O)[C@H](CC(C)C)NC(=O)[C@H](CCCN=C(N)N)NC(=O)[C@H](Cc1c[nH]c2ccccc12)NC(=O)[C@@H](N)CCCN=C(N)N)C(=O)N[C@@H](CCCCN)C(=O)N[C@@H](CCCN=C(N)N)C(=O)N[C@@H](Cc1cnc[nH]1)C(=O)O [RWRLLLLLKRH]
MIC (Enterococcus faecalis): 23.5 µM (≈ 35.4 µg/mL)
MIC (Enterococcus faecium): 23.5 µM (≈ 35.4 µg/mL)

SMILES: CC[C@H](C)[C@H](NC(=O)[C@H](Cc1cnc[nH]1)NC(=O)[C@H](CC(C)C)NC(=O)[C@H](CC(C)C)NC(=O)[C@@H](NC(=O)[C@H](CCCCN)NC(=O)[C@@H](N)C(C)C)[C@@H](C)O)C(=O)N[C@@H](Cc1ccccc1)C(=O)N[C@@H](CCC(N)=O)C(=O)N[C@@H](CCCN=C(N)N)C(=O)N[C@@H](Cc1ccccc1)C(N)=O [VKTLLHIFQRF]
MIC (Streptococcus mutans): ≥ 44.6 µM
